A melting point compilation (Tetko et al.; mined from patent text by program, amines drawn as free bases though some values may be those of a salt)

Row | Compound | melting point
1 | CCCOc1ccc(S(=O)(=O)Cl)cc1C(N)=O | 122 to 129 °C
2 | Cn1c(=O)c(-c2ccccc2Cl)cc2cnc(NC3CCS(=O)(=O)CC3)nc21 | 206 to 207 °C
3 | N#Cc1c(N)nc2ccccc2c1NCc1ccco1 | 206 °C
4 | IC#CCSc1ccncc1 | 140 °C
5 | N#CCN1C(=O)COc2cc(F)c(-n3c(=O)n4n(c3=O)CCCC4)cc21 | 286 to 287 °C
6 | CCCCCCCCC(SCCCCCC)C(=O)Nc1c(Cl)cc(NC(C)=O)c2ncc(C)cc12 (stereo not drawn) | 140 to 141 °C
7 | NNC(=S)Nc1ccc2ccccc2c1 | 174 to 176 °C
8 | O=c1[nH]ncc2[nH]c(-c3ccc(OC(F)F)c(OC4CC4)c3)c(Cc3ccccc3)c12 | 215 to 217 °C
9 | CC(=O)NC(C)Cc1ccc(OC(C)=O)cc1 (stereo not drawn) | 97.5 to 99 °C
10 | O=C(O)CCCNC(=O)CCCNC(=O)c1cc(Br)no1 | 157 to 158 °C
11 | C[C@@H]1CNCc2cc3cccc(OC(F)(F)F)c3n21 | 58 to 60 °C
12 | CCOP(=O)(OCC)SCS(=O)C(C)(C)C (stereo not drawn) | 34.5 to 36 °C
13 | Cc1cccc(C(C)C)c1NC(=O)NCC1(c2ccccc2)CCCC1 | 157 to 159 °C
14 | N#Cc1ccc(N2C(=O)C3=CCCN3C2=O)c2ccccc12 | 230 to 232 °C
15 | COc1ccc(S(=O)(=O)n2ccc3ccnc(-c4ccccc4)c32)cc1 | 149 to 151 °C
16 | CCS(=O)(=O)N(C)C1CC(C)(C)Oc2ccc(O)cc21 (stereo not drawn) | 160 to 162 °C
17 | O=C(N1CC(CCl)c2c1ccc1ccc(S(=O)(=O)N(Cc3ccccc3)Cc3ccccc3)cc21)C(F)(F)F (stereo not drawn) | 119 to 121 °C
18 | CC(=O)c1ccc(N2CCN(c3c(C)c(C)c4c(c3C)CC(C)(C)O4)CC2)cc1 | 192 to 196 °C
19 | CN(CC(O)c1ccc2[nH]c(=O)[nH]c2c1)C1CCC(c2ccccc2)CC1 (stereo not drawn) | 238 to 239 °C
20 | COc1ccc(C)cc1NC(=O)Nc1ccc(C2=CCN(C(=O)Nc3cc(OCCO)ccc3Cl)CC2)cc1 | 139 to 142 °C
21 | O=C(Nc1ccc(-n2ncn(-c3ccc(OCC(F)(F)C(F)F)cc3)c2=O)cc1)Oc1ccccc1 | 204 to 206 °C
22 | CC1(CN2CCC(S(=O)c3ccc(OC(F)(F)F)cc3)CC2)Cn2cc([N+](=O)[O-])nc2O1 (stereo not drawn) | 107 to 109 °C

Row | Compound | melting point
23 | Nc1ccc(C(=O)Cn2c(-c3nonc3NCCC(=O)O)nc3ccccc32)cc1 | 174 to 177 °C
24 | O=C(O)CCC1(c2cccc(Cl)c2)NC(=O)NC1=O (stereo not drawn) | 196 to 217 °C
25 | N#Cc1c(O)nsc1S(=O)(=O)Cc1ccccc1 | 181 to 183 °C
26 | Cc1cc(C)c(C)c(C(=O)Cn2ccnc2)c1C | 176 to 178 °C
27 | CC1(C)Oc2ccc(C#N)cc2[C@@H](NC(=O)c2ccc(Cl)cc2)[C@@H]1O (relative stereo) | 226 to 229 °C
28 | Cc1ccc2[nH]c3c(cc(-c4cccc(C=O)c4)c(=O)n3C)c2c1 | 280 °C
29 | CON1C(C)(C)CC(OC(=O)c2ccccc2)CC1(C)C | 67 to 68 °C
30 | CCN(C(=O)C(F)(F)F)c1cc(C)nc(Oc2c(C)cc(C)cc2C)c1C | 110 to 111 °C
31 | CCOC(=O)c1cnoc1-c1ccc(OC)c(OC)c1 | 113 to 114 °C
32 | CC(=O)N(O)CCOc1ccc(-c2ccc(C#N)cc2)cc1 | 174 to 175 °C
33 | COc1ccc(S(=O)(=O)N2c3ccc(Br)cc3-c3ccccc3C2c2ccccc2)cc1Br (stereo not drawn) | 205 to 207 °C
34 | Cc1cc(NC(=O)c2[nH]c(C)c(-c3nc4ccc(C(=O)c5ccccc5)cc4[nH]3)c2C)no1 | 271 to 273 °C
35 | O=C(O)c1cnccc1C(=O)c1ccc(F)cc1 | 231 to 232 °C
36 | O=C(NCCN1CCCC1)N1CCN(c2ccc(F)cc2)CC1 | 100 to 102 °C
37 | OC(CCN1CC=C(c2ccccc2)CC1)c1ccc(Cl)cc1Cl (stereo not drawn) | 103 to 104 °C
38 | CNC(=O)Oc1ccc(NS(=O)(=O)c2ccc(C)cc2)c(C)c1 | 181 to 184 °C
39 | NC(=O)c1ncn2c(-c3ccccc3)ccnc12 | 226 to 228 °C
40 | COC(=O)c1cc2cc(OCc3cccnc3)ccc2s1 | 126 to 127 °C
41 | CC(C)NCCCC[C@@H](N)C(=O)O | 224 °C
42 | CC(=O)NCc1ccc(/C=C/C(c2cc(Cl)cc(Cl)c2)C(F)(F)F)cc1 (stereo not drawn) | 107 to 109 °C
43 | C=CCN(CC)c1nc(N2CCc3ccccc3CC2)c(C#N)c(=O)n1CC=C | 138 to 140 °C
44 | CN(O)C(=O)Nc1ccc(Oc2ccc(NC(=O)N(C)O)cc2)cc1 | 183 to 184 °C

Second part, the compound after the results:

Row | melting point | Compound
45 | 146 °C | CC1(C)C=C(n2cncn2)c2cccc(OCc3c(Cl)ccc(S(=O)(=O)N4CCC[C@H]4C(=O)O)c3Cl)c2N1
46 | 175 to 177 °C | COc1ccc(Cn2c3ncnc4c(ncn4Cc4ccc(OC)cc4)c-3nc2=O)cc1
47 | 118 to 119 °C | CN1CCC(O)(c2ccccc2CO)CC1
48 | 227 to 229 °C | COc1ccc2c(C(=O)O)ccc(OC)c2c1
49 | 188 to 190 °C | COc1ccc(CC(=O)NC(NC(=NC#N)Nc2cccnc2OC)C(C)(Cl)Cl)cc1OC (stereo not drawn)
50 | 137 to 139 °C | COC(=O)CCC(C)C1CCC2C3C(C(C)=O)CC4CC(C(C)=O)CCC4(C)C3C=CC12C (stereo not drawn)
51 | 210 °C | Cn1c(=O)cc(C(N)=S)c2cc(C(=O)c3ccc(Cl)cc3)ccc21
52 | 205 to 207 °C | COCCCNc1cccc(Oc2ccc(-c3cn(C4CCOCC4)c4ncnc(N)c34)cc2)c1C#N
53 | 197 to 198 °C | O=c1[nH]c2ccccc2cc1-c1csc(-c2cccnc2)n1
54 | 227 to 228 °C | O=C(N[C@H](Cc1ccc(C(F)(F)F)cc1)[C@@H](O)c1ccc(F)cc1)c1ccnc2ccccc12 (racemic)
55 | 169 to 171 °C | Cc1cc(=O)n2c3c(cc(C(O)(C(F)(F)F)C(F)(F)F)cc13)CCCC2
56 | 123 to 124 °C | O=C(CCCc1cccs1)NC(Cc1ccc(C(F)(F)F)cc1)C(=O)c1ccc(F)cc1 (stereo not drawn)
57 | 110 to 111 °C | COC(=O)Cc1cc(OC)c(OC)cc1[N+](=O)[O-]
58 | 223 to 224 °C | CCOC(=O)c1c(-c2ccccc2)c2cc(Cl)ccc2[nH]c1=O
59 | 117 to 118 °C | CNC(=O)C(C)Oc1ccc(Oc2ccc(Cl)cc2)cc1 (stereo not drawn)
60 | 145 to 147 °C | COc1ccc(C2=NN(C3CCN(C(=O)NC(C)(C)C)CC3)C(=O)[C@H]3CC=CC[C@@H]23)c2c1OC(C)(C)C2 (relative stereo)
61 | 235 to 236 °C | CC(C)Cn1cnc2c(N)nc3ccc(-c4ccsc4)cc3c21
62 | 166 to 168 °C | CC(=O)n1nc(S(=O)(=O)Cl)nc1N
63 | 143 to 145 °C | CN(C)c1ccc(C(=O)C#Cc2ccncc2)cc1
64 | 157 to 159 °C | S=C(NN=Cc1cccc(-c2ccccc2Br)n1)NN1CCCC1
65 | 113 to 115 °C | COc1cc(N)c2nccc(C)c2c1Oc1cccc(C(F)(F)F)c1
66 | 158 to 164 °C | CCC(=O)N1CCC(NC(=O)Nc2cccc(F)c2)CC1
67 | 210 to 215 °C | CN1C(=O)C=C(c2ccc3c(c2)OCO3)C1=O
68 | 85 to 88 °C | CN(CCCO)C(=O)c1c2ccc(Cl)cc2c(-c2ccccc2)n1C
69 | 171 to 173 °C | CCOCc1nc2c(N)nc3c(c2n1CC1(O)CCCC1)CCCC3
70 | 148 to 151 °C | COC(=O)c1ccc[nH]c1=O
71 | 44 to 45 °C | O=C(CC1CCCCC1=O)c1ccccc1 (stereo not drawn)
72 | 205 to 206 °C | CCOCc1nc2c(N)nc3cc(N4CCCCC4=O)ccc3c2n1CCCOC(C)C
73 | 107 to 108 °C | Oc1ccc(C2CCCN2CCN2CCOCC2)cc1 (stereo not drawn)
